From article PMC8143618, “Biochemical profiling of anti-HIV prodrug Elsulfavirine (Elpida®) and its active form VM1500A against a panel of twelve human carbonic anhydrase isoforms” (Journal of Enzyme Inhibition and Medicinal Chemistry, 2021)

Legend:
hCA IX = hCA IX (Homo sapiens, UniProt Q16790); experiment: Stopped flow CO2 hydrase assay, hCA IX
Protocol: (§1) An Applied Photophysics stopped-flow instrument has been used for assaying the CA-catalysed CO2 hydration activity[11]. […] The uncatalysed rates were determined in the same manner and subtracted from the total observed rates. Stock solutions of inhibitor (0.1 mM) were prepared in distilled-deionised water and dilutions up to 0.01 nM were done thereafter with the assay buffer. […] The inhibition constants were obtained by non-linear least-squares methods using PRISM 3 and the Cheng–Prusoff equation, as reported earlier[12]^,[13] and represent the mean from at least three different determinations.

hCA XIV = hCA XIV (Homo sapiens, UniProt Q9ULX7); experiment: Stopped flow CO2 hydrase assay, hCA XIV
Protocol: as §1

hCA VA = hCA VA (Homo sapiens, UniProt P35218); experiment: Stopped flow CO2 hydrase assay, hCA VA
Protocol: as §1

hCA I = hCA I (Homo sapiens, UniProt P00915); experiment: Stopped flow CO2 hydrase assay, hCA I
Protocol: as §1

hCA III = hCA III (Homo sapiens, UniProt P07451); experiment: Stopped flow CO2 hydrase assay, hCA III
Protocol: as §1

hCA II = hCA II (Homo sapiens, UniProt P00918); experiment: Stopped flow CO2 hydrase assay, hCA II
Protocol: as §1

HIV = settings: compared to efavirenz, cited from earlier work
hCA XIII = hCA XIII (Homo sapiens, UniProt Q8N1Q1); experiment: Stopped flow CO2 hydrase assay, hCA XIII
Protocol: as §1

hCA VII = hCA VII (Homo sapiens, UniProt P43166); experiment: Stopped flow CO2 hydrase assay, hCA VII
Protocol: as §1

hCA VB = hCA VB (Homo sapiens, UniProt Q9Y2D0); experiment: Stopped flow CO2 hydrase assay, hCA VB
Protocol: as §1

[1] = design: method as in PMID 28940154; settings: cited from earlier work
hCA VI = hCA VI (Homo sapiens, UniProt P23280); experiment: Stopped flow CO2 hydrase assay, hCA VI
Protocol: as §1

hCA IV = hCA IV (Homo sapiens, UniProt P22748); experiment: Stopped flow CO2 hydrase assay, hCA IV
Protocol: as §1

hCA XII = hCA XII (Homo sapiens, UniProt O43570); experiment: Stopped flow CO2 hydrase assay, hCA XII
hCA XII, sequence (O43570 25-354): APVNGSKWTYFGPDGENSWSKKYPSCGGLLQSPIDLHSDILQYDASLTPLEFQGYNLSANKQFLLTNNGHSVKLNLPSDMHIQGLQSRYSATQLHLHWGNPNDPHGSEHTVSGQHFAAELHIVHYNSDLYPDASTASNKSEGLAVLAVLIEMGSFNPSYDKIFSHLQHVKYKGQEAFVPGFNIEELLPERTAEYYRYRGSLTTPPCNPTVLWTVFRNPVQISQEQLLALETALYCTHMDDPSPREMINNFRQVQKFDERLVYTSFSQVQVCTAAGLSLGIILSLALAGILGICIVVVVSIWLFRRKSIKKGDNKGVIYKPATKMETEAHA
Protocol: as §1

hCA III, sequence (P07451 whole entry): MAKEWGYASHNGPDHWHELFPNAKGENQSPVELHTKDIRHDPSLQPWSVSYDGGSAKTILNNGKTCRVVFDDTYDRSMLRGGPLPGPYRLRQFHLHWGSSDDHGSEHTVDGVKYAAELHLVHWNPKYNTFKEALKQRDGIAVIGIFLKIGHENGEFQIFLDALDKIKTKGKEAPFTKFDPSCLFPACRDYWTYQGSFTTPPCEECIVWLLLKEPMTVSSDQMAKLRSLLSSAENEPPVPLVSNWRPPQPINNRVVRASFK
hCA IV, sequence (P22748 19-312): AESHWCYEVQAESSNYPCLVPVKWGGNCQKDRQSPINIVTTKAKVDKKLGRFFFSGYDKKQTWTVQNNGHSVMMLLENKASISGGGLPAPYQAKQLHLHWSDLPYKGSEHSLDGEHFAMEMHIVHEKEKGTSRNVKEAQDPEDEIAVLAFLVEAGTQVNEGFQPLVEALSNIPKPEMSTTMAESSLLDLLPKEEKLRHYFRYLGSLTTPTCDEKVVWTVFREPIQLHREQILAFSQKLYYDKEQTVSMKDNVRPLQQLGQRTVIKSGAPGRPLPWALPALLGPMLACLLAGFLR
hCA VII, sequence (P43166 whole entry): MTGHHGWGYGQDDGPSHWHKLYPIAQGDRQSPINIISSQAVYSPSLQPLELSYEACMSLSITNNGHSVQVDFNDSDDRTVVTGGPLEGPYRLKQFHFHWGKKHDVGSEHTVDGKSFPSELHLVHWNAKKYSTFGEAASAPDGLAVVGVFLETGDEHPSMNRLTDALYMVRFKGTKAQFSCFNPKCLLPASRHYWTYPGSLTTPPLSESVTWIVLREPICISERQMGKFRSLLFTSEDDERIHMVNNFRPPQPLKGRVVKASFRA
hCA VB, sequence (Q9Y2D0 34-317): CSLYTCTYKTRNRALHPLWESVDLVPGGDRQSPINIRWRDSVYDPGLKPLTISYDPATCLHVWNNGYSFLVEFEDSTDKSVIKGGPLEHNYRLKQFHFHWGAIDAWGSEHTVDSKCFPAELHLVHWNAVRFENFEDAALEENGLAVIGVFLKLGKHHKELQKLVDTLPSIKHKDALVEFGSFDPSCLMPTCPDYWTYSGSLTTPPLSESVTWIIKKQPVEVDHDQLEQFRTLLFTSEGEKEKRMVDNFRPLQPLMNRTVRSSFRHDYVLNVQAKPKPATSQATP
hCA XIV, sequence (Q9ULX7 16-337): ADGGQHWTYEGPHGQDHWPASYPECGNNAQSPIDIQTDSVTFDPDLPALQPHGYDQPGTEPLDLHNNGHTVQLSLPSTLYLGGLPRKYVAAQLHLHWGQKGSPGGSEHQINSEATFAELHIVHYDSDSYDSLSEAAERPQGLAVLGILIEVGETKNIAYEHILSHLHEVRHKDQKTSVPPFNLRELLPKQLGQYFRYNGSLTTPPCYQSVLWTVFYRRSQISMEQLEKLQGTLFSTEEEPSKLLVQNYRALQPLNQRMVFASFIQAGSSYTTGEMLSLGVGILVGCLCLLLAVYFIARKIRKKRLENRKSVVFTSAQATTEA
hCA VI, sequence (P23280 18-308): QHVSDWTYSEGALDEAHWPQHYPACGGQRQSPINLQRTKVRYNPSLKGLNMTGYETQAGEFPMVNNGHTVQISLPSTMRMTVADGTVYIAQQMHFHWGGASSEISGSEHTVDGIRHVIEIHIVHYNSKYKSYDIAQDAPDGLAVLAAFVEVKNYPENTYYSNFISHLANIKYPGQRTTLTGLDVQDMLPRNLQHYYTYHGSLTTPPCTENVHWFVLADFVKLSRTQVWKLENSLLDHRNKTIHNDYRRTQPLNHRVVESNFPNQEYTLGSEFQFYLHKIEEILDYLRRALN
hCA VA, sequence (P35218 39-305): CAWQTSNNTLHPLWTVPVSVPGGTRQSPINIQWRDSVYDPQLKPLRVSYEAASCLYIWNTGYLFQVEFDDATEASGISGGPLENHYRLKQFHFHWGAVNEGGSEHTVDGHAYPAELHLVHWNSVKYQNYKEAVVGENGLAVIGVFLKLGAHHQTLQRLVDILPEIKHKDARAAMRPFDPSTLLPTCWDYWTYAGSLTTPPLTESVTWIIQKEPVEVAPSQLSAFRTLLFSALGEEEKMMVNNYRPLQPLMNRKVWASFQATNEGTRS
hCA XIII, sequence (Q8N1Q1 whole entry): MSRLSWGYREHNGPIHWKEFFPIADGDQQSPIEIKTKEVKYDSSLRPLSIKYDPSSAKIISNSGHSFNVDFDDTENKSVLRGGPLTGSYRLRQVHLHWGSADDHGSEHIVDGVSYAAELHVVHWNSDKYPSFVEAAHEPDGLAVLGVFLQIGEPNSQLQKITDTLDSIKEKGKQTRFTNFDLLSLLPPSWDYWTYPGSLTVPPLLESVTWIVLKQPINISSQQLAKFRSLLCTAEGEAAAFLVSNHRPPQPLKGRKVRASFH
hCA I, sequence (P00915 whole entry): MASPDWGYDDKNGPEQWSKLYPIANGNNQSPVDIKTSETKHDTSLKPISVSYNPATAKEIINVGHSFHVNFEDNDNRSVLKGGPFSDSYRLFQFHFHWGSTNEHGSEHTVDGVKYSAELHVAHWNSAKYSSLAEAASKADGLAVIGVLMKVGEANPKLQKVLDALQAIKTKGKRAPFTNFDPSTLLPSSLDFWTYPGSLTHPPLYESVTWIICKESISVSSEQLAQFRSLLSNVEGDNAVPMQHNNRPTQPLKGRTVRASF

selectivity towards hCA VII over the majority of other hCA isoforms (hCA VII; from Ki values) | Ki (hCA XII) [nM] | Compound | Ki (hCA IX) [nM] | Ki (hCA XIV) [nM] | Ki (hCA VA) [nM] | Ki (hCA I) [nM] | Ki (hCA III) [nM] | inhibition of hCA III (in words) (hCA III; stopped flow CO2 hydrase assay) | Ki (hCA II) [nM] | tolerability and side effects (HIV; patients) | virologic response (viral load and HIV RNA reduction) (HIV; treatment-naive patients) | Ki (hCA XIII) [nM] | Ki (hCA VII) [nM] | Ki (hCA VB) [nM] | t1/2 of conversion to VM1500A ([1]; conversion of prodrug to active form) [h] | Ki (hCA VI) [nM] | Ki (hCA IV) [nM] | inhibition of hCA IV (in words) (hCA IV; stopped flow CO2 hydrase assay) | t1/2 of elimination ([1]; elimination of active form) [h]
– | – | CCC(=O)NS(=O)(=O)c1ccc(NC(=O)Cc2ccc(Br)c(Oc3cc(Cl)cc(C#N)c3)c2F)c(Cl)c1 [elsulfavirine] | 6650 | 1960 | 4290 | 52400 | > 100000 | virtually no inhibition | 12500 | superior tolerability and fewer side effects | comparable to that of the patients treated with efavirenz | 4820 | 2390 | 14200 | ~2 | 5670 | > 100000 | virtually no inhibition | –
1–2 orders of magnitude | 62.3 | N#Cc1cc(Cl)cc(Oc2c(Br)ccc(CC(=O)Nc3ccc(S(N)(=O)=O)cc3Cl)c2F)c1 [VM1500A] | 72.1 | 15.4 | 537 | 514 | > 100000 | – | 35.5 | – | – | 52.2 | 9.7 | 221 | – | 125 | 158 | – | > 120
